The record followed here is patent US10703755B2, “Substituted purine derivative” (SUMITOMO DAINIPPON PHARMA CO., LTD., priority 2016, dated 2020).

The assay deals with human TLR7 (Homo sapiens (Human), UniProt Q9NYK1). In words: Test for evaluating the inhibition of the activation of human TLR7 (SEAP reporter, TLR7/NF-κB/SEAPorter HEK293 cell). The assay is classed as cell-based. The conditions noted are these: R-848 200 nmol/L; for inhibitory effect against TLR7 in the test for evaluating inhibition of the activation of TLR7: SEAP activity, result in words; for IC50: SEAP reporter. The procedure, abridged:
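The readout is secreted alkaline phosphatase under NF-κB response-element control in TLR7/NF-κB/SEAPorter HEK293 cells, which stably express full-length human TLR7. Cells were plated at 5×10^4 per well and grown overnight at 37° C, 5% CO2, in DMEM/10% FBS/blasticidin.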

Chain of human TLR7 (Q9NYK1 27-1049): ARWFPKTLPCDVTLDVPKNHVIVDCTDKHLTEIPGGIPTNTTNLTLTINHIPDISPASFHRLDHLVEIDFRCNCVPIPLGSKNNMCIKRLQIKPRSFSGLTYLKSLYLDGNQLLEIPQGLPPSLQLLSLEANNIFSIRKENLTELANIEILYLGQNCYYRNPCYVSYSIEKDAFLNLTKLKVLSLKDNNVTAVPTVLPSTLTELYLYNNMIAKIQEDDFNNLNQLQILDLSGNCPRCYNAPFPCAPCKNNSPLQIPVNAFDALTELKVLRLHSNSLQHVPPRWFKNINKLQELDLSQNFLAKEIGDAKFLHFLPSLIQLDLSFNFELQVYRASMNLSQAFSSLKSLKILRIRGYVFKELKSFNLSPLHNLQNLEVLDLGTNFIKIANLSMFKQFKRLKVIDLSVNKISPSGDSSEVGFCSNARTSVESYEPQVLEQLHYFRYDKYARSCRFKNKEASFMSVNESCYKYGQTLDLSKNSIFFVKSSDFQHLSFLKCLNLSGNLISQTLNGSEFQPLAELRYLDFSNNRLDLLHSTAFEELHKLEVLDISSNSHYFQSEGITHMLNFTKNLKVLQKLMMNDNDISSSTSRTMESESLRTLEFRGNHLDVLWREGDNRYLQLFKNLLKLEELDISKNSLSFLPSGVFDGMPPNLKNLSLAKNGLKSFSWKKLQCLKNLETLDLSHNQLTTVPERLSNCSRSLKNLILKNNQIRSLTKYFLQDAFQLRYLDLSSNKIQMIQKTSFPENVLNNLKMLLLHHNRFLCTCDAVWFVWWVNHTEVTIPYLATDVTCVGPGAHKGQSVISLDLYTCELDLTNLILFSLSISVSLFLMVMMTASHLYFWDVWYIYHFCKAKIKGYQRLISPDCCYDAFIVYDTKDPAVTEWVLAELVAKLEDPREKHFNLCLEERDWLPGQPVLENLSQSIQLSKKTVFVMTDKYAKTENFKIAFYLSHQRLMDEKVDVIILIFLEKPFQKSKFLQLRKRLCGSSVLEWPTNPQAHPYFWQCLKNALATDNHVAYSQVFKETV

One may read the IC50 as the point on the concentration scale where inhibition reaches its midpoint. Turning to `COc1nc(C)c2nc(-c3cncc(F)c3)n(Cc3ccc(OC4CCN(C)CC4)cc3F)c2n1` [Example 411, 9-{2-fluoro-4-[(1-methylpiperidin-4-yl)oxy]benzyl}-8-(5-fluoropyridin-3-yl)-2-methoxy-6-methyl-9H-purine], the “inhibitory effect against TLR7 in the test for evaluating inhibition of the activation of TLR7” value (“inhibitory effect against TLR7” for short) was “potent inhibitory effect against TLR7” and the IC50 was 0.026 µM.

Consider `COc1nc(C)c2nc(-c3cncc(F)c3)n(Cc3ccc(O[C@@H]4CN5CCC4CC5)cc3F)c2n1` [Example 412, 9-{4-[(3S)-1-azabicyclo[2.2.2]oct-3-yloxy]-2-fluorobenzyl}-8-(5-fluoropyridin-3-yl)-2-methoxy-6-methyl-9H-purine], for which the “inhibitory effect against TLR7” value was “potent inhibitory effect against TLR7” and the IC50 was 0.005 µM.

For the compound `COc1nc(C)c2nc(-c3cncc(F)c3)n(Cc3ccc(O[C@H]4CN5CCC4CC5)cc3F)c2n1` [Example 413, 9-{4-[(3R)-1-azabicyclo[2.2.2]oct-3-yloxy]-2-fluorobenzyl}-8-(5-fluoropyridin-3-yl)-2-methoxy-6-methyl-9H-purine], the “inhibitory effect against TLR7” value was “potent inhibitory effect against TLR7” and the IC50 amounted to 0.009 µM.

Regarding `COc1nc(C)c2nc(-c3cncc(F)c3)n(Cc3ccc(O[C@H]4CCN(C)C4)cc3F)c2n1` [Example 414, 9-(2-fluoro-4-{[(3S)-1-methylpyrrolidin-3-yl]oxy}benzyl)-8-(5-fluoropyridin-3-yl)-2-methoxy-6-methyl-9H-purine], the “inhibitory effect against TLR7” value is on record as “potent inhibitory effect against TLR7” and the IC50 is 0.016 µM.

`COc1nc(C)c2nc(-c3cncc(F)c3)n(Cc3ccc(O[C@@H]4CCN(C)C4)cc3F)c2n1` [Example 415, 9-(2-fluoro-4-{[(3R)-1-methylpyrrolidin-3-yl]oxy}benzyl)-8-(5-fluoropyridin-3-yl)-2-methoxy-6-methyl-9H-purine]: the “inhibitory effect against TLR7” value was “potent inhibitory effect against TLR7” and inhibition was half-maximal at 0.016 µM (IC50).

Regarding `COc1nc(C)c2nc(-c3cncc(F)c3)n(Cc3ccc(OC4CN(C)C4)cc3F)c2n1` [Example 416, 9-{2-fluoro-4-[(1-methylazetidin-3-yl)oxy]benzyl}-8-(5-fluoropyridin-3-yl)-2-methoxy-6-methyl-9H-purine], the “inhibitory effect against TLR7” value is on record as “potent inhibitory effect against TLR7” and half-maximal inhibition (IC50) was put at 0.05 µM.

Take `COc1nc(C)c2nc(-c3cncc(F)c3)n(Cc3ccc(O[C@@H]4C[C@H]5CC[C@@H](C4)N5C)cc3F)c2n1` [Example 418, 9-(2-fluoro-4-{[(3-exo)-8-methyl-8-azabicyclo[3.2.1]oct-3-yl]oxy}benzyl)-8-(5-fluoropyridin-3-yl)-2-methoxy-6-methyl-9H-purine]: the “inhibitory effect against TLR7” value is listed as “potent inhibitory effect against TLR7” and the IC50 was 0.019 µM.

For `COc1nc(C)c2nc(-c3cncc(F)c3)n(Cc3ccc(OCC4CN(C(=O)OC(C)(C)C)C4)cc3F)c2n1` [Example 419], inhibition was half-maximal at 0.712 µM (IC50).

As for `COc1nc(C)c2nc(-c3cncc(F)c3)n(Cc3ccc(OCCN(C)C)cc3F)c2n1` [Example 420], the midpoint of inhibition, the IC50, lay at 0.139 µM.

`COc1nc(C)c2nc(-c3cncc(F)c3)n(Cc3ccc(OCCCN(C)C)cc3F)c2n1` [Example 421]: the “inhibitory effect against TLR7” value is recorded as “potent inhibitory effect against TLR7” and the IC50 turned out to be 0.073 µM.

On to `CCOc1nc(C)c2nc(-c3cncc(F)c3)n(Cc3cnn(CC4CNCCO4)c3)c2n1` (centres unmarked) [Example 424], for which the IC50 worked out at 0.1 µM.

In the case of `CCOc1nc(C)c2nc(-c3cncc(F)c3)n(Cc3cnn(CC4CNCCO4)c3)c2n1` (centres unmarked) [Example 425], 0.093 µM corresponded to half-maximal inhibition (IC50).

`CCOc1nc(C)c2nc(-c3cncc(F)c3)n(Cc3cnn(CC4COCCN4)c3)c2n1` (centres unmarked) [Example 426] came in with an IC50 of 0.2 µM.

Take `CCOc1nc(C)c2nc(-c3cncc(F)c3)n(Cc3cnn(CC4COCCN4)c3)c2n1` (centres unmarked) [Example 427]: the IC50 is 0.028 µM.

In the case of `CCOc1nc(C)c2nc(-c3cncc(F)c3)n(Cc3cnn(CC4CCNCC4)c3)c2n1` [Example 428], half-maximal inhibition (IC50) required 0.21 µM.

`CCOc1nc(C)c2nc(-c3cncc(F)c3)n(Cc3cnc(CC4CCNCC4)cc3OC)c2n1` [Example 430] registered an IC50 of 0.549 µM.

On to `COc1nc(C)c2nc(-c3cncc(F)c3)n(Cc3ccc(C4CCNCC4)cc3F)c2n1` [Example 431], for which the “inhibitory effect against TLR7” value is listed as “potent inhibitory effect against TLR7” and it took 0.008 µM to reach half-maximal inhibition (IC50).

Turning to `COc1nc(C)c2nc(-c3cncc(F)c3)n(Cc3ccc(CC4CCNCC4)cc3F)c2n1` [Example 432], the “inhibitory effect against TLR7” value is “potent inhibitory effect against TLR7” and 0.062 µM corresponded to half-maximal inhibition (IC50).

With `COc1nc(C)c2nc(-c3cncc(F)c3)n(Cc3ccc(O[C@H]4C[C@H]5CC[C@@H](C4)N5)cc3F)c2n1` [Example 433], the “inhibitory effect against TLR7” value is recorded as “potent inhibitory effect against TLR7” and 0.009 µM corresponded to half-maximal inhibition (IC50).

In turn, `COc1nc(C)c2nc(-c3cncc(F)c3)n(Cc3ccc(OCC4CNC4)cc3F)c2n1` [Example 434] displayed an IC50 of 0.09 µM.

The compound `COc1nc(C)c2nc(-c3cncc(F)c3)n(Cc3ccc(C4CCNC4)cc3F)c2n1` (centres unmarked) [Example 435] came in with an IC50 of 0.018 µM.

Consider `COc1nc(C)c2nc(-c3cncc(C#N)c3)n(Cc3ccc(O[C@H]4C[C@H]5CC[C@@H](C4)N5)cc3F)c2n1` [Example 436], for which the “inhibitory effect against TLR7” value is reported as “potent inhibitory effect against TLR7” and it took 0.037 µM to reach half-maximal inhibition (IC50).

As to `COc1nc(C)c2nc(-c3cccnc3)n(Cc3ccc(O[C@H]4C[C@H]5CC[C@@H](C4)N5)cc3F)c2n1` [Example 437], the “inhibitory effect against TLR7” value is “potent inhibitory effect against TLR7” and the midpoint of inhibition, the IC50, lay at 0.016 µM.

As to `COc1nc(C)c2nc(-c3ccc(C(N)=O)nc3)n(Cc3ccc(OC4CN5CCC4CC5)cc3F)c2n1` (centres unmarked) [Example 439], inhibition was half-maximal at 0.134 µM (IC50).

`COc1nc(C)c2nc(-c3ccc4ncccc4c3)n(Cc3ccc(OC4CN5CCC4CC5)cc3F)c2n1` (centres unmarked) [Example 440]: inhibition was half-maximal at 0.084 µM (IC50).

The compound `COc1nc(C)c2nc(-c3cccnn3)n(Cc3ccc(OC4CN5CCC4CC5)cc3F)c2n1` (centres unmarked) [Example 441] displayed an IC50 of 0.176 µM.

Take `COc1nc(C)c2nc(-c3cncc(F)c3)n(Cc3cc(C4CN5CCC4CC5)ccc3F)c2n1` (centres unmarked) [Example 443, 9-[5-(1-azabicyclo[2.2.2]oct-3-yl)-2-fluorobenzyl]-8-(5-fluoropyridin-3-yl)-2-methoxy-6-methyl-9H-purine]: the “inhibitory effect against TLR7” value is given as “potent inhibitory effect against TLR7” and the IC50 was 0.017 µM.

In turn, `COc1nc(C)c2nc(-c3cncnc3)n(Cc3ccc([C@@H]4CN5CCC4CC5)cc3F)c2n1` [Example 444, 9-{4-[(3R)-1-Azabicyclo[2.2.2]oct-3-yl]-2-fluorobenzyl}-2-methoxy-6-methyl-8-(pyrimidin-5-yl)-9H-purine] registered an IC50 of 0.098 µM.

`COc1nc(C)c2nc(-c3cncnc3)n(Cc3ccc([C@H]4CN5CCC4CC5)cc3F)c2n1` [Example 445, 9-{4-[(3S)-1-azabicyclo[2.2.2]oct-3-yl]-2-fluorobenzyl}-2-methoxy-6-methyl-8-(pyrimidin-5-yl)-9H-purine]: the “inhibitory effect against TLR7” value is “potent inhibitory effect against TLR7” and the midpoint of inhibition, the IC50, lay at 0.021 µM.
